# Test results: patent publication US11427567B2, “Imidazolyl pyrimidinylamine compounds as CDK2 inhibitors” (Incyte Corporation, priority 2019, dated 2022)
# Target: CDK2/Cyclin E1 (Homo sapiens (Human), UniProt P24941)
# Experiment: CDK2/Cyclin E1 HTRF enzyme activity assay (Example A)
# Format: biochemical
# Settings: 1 mM ATP
# Procedure: Assays were conducted in white 384-well polystyrene plates in a final reaction volume of 8 μL. […] HTRF signals were read after 1 hour at room temperature on a PHERAstar FS plate reader (BMG Labtech). Data was analyzed with IDBS XLFit and GraphPad Prism 5.0 software using a three or four parameter dose response curve to determine IC50 for each compound.
row,Compound,IC50 [µM]
1,"CC(O)c1cccc(-n2cnc(-c3nc(NC4CCN(S(C)(=O)=O)CC4)ncc3C(F)(F)F)c2)c1Cl (stereo not drawn) [Example 83, 1-(2-Chloro-3-(4-(2-((1-(methylsulfonyl)piperidin-4-yl)amino)-5-(trifluoromethyl)pyrimidin-4-yl)-1H-imidazol-1-yl)phenyl)ethan-1-ol]",≤ 0.05
2,"CS(=O)(=O)N1CCC(Nc2ncc(C(F)(F)F)c(-c3cn(-c4cccc(CO)c4Cl)cn3)n2)CC1 [Example 84, (2-Chloro-3-(4-(2-((1-(methylsulfonyl)piperidin-4-yl)amino)-5-(trifluoromethyl)pyrimidin-4-yl)-1H-imidazol-1-yl)phenyl)methanol]",≤ 0.05
3,"CCC(O)c1cccc(-n2cnc(-c3nc(NC4CCN(S(C)(=O)=O)CC4)ncc3C(F)(F)F)c2)c1Cl (stereo not drawn) [Example 85, 1-(2-Chloro-3-(4-(2-((1-(methylsulfonyl)piperidin-4-yl)amino)-5-(trifluoromethyl)pyrimidin-4-yl)-1H-imidazol-1-yl)phenyl)propan-1-ol]",≤ 0.05
4,"CS(=O)(=O)N1CCC(Nc2ncc(C(F)(F)F)c(-c3cn(-c4cccc(C(O)C5CC5)c4Cl)cn3)n2)CC1 (stereo not drawn) [Example 86, (2-chloro-3-(4-(2-((1-(methylsulfonyl)piperidin-4-yl)amino)-5-(trifluoromethyl)pyrimidin-4-yl)-1H-imidazol-1-yl)phenyl)(cyclopropyl)methanol]",≤ 0.05
5,"CCS(=O)(=O)N1CCC(Nc2ncc(C(F)(F)F)c(-c3cn(-c4ccc(C)nc4C#N)cn3)n2)CC1 [Example 87, 3-(4-(2-((1-(Ethylsulfonyl)piperidin-4-yl)amino)-5-(trifluoromethyl)pyrimidin-4-yl)-1H-imidazol-1-yl)-6-methylpicolinonitrile]",≤ 0.05
6,"Cn1cc(S(=O)(=O)N2CCC(Nc3ncc(C(F)(F)F)c(-c4cn(-c5cccnc5C(F)F)cn4)n3)CC2)cn1 [Example 88, 4-(1-(2-(Difluoromethyl)pyridin-3-yl)-1H-imidazol-4-yl)-N-(1-((1-methyl-1H-pyrazol-4-yl)sulfonyl)piperidin-4-yl)-5-(trifluoromethyl) pyrimidin-2-amine]",≤ 0.05
7,"CCS(=O)(=O)N1CCC(Nc2ncc(C(F)(F)F)c(-c3cn(-c4cccnc4C#N)cn3)n2)CC1 [Example 89, 3-(4-(2-((1-(Ethylsulfonyl)piperidin-4-yl)amino)-5-(trifluoromethyl)pyrimidin-4-yl)-1H-imidazol-1-yl)picolinonitrile]",≤ 0.05
8,"Cc1ccc(-n2cnc(-c3nc(NC4CCN(S(=O)(=O)c5cnn(C)c5C)CC4)ncc3C(F)(F)F)c2)c(C#N)n1 [Example 90, 3-(4-(2-((1-((1,5-Dimethyl-1H-pyrazol-4-yl)sulfonyl)piperidin-4-yl)amino)-5-(trifluoromethyl)pyrimidin-4-yl)-1H-imidazol-1-yl)-6-methylpicolinonitrile]",≤ 0.05
9,"O=S(=O)(C1CC1)N1CCC(Nc2ncc(C(F)(F)F)c(-c3cn(-c4cccnc4C(F)(F)F)cn3)n2)CC1 [Example 91, N-(1-(Cyclopropylsulfonyl)piperidin-4-yl)-5-(trifluoromethyl)-4-(1-(2-(trifluoromethyl)pyridin-3-yl)-1H-imidazol-4-yl)pyrimidin-2-amine]",≤ 0.05
10,"N#Cc1cccc(-n2cnc(-c3nc(NC4CCN(S(=O)(=O)C5CC5)CC4)ncc3C(F)(F)F)c2)c1C(F)(F)F [Example 92, 3-(4-(2-((1-(Cyclopropylsulfonyl)piperidin-4-yl)amino)-5-(trifluoromethyl)pyrimidin-4-yl)-1H-imidazol-1-yl)-2-(trifluoromethyl) benzonitrile]",≤ 0.05
11,"CCS(=O)(=O)N1CCC(Nc2ncc(C(F)(F)F)c(-c3cn(-c4ccc(C#N)nc4C)cn3)n2)CC1 [Example 93, 5-(4-(2-((1-(Ethylsulfonyl)piperidin-4-yl)amino)-5-(trifluoromethyl)pyrimidin-4-yl)-1H-imidazol-1-yl)-6-methylpicolinonitrile]",≤ 0.05
12,"CCCc1ccc(-n2cnc(-c3nc(NC4CCN(S(C)(=O)=O)CC4)ncc3C(F)(F)F)c2)c(C#N)n1 [Example 94, 3-(4-(2-((1-(Methylsulfonyl)piperidin-4-yl)amino)-5-(trifluoromethyl)pyrimidin-4-yl)-1H-imidazol-1-yl)-6-propylpicolinonitrile]",≤ 0.05
13,"CCc1ccc(-n2cnc(-c3nc(NC4CCN(S(C)(=O)=O)CC4)ncc3C(F)(F)F)c2)c(C(F)(F)F)n1 [Example 95, 4-(1-(6-Ethyl-2-(trifluoromethyl)pyridin-3-yl)-1H-imidazol-4-yl)-N-(1-(methylsulfonyl)piperidin-4-yl)-5-(trifluoromethyl) pyrimidin-2-amine]",≤ 0.05
14,"CS(=O)(=O)N1CCC(Nc2ncc(C(F)(F)F)c(-c3cn(-c4cccc(-c5ccnc(N)c5)c4Cl)cn3)n2)CC1 [Example 96, 4-(1-(3-(2-Aminopyridin-4-yl)-2-chlorophenyl)-1H-imidazol-4-yl)-N-(1-(methylsulfonyl)piperidin-4-yl)-5-(trifluoromethyl)pyrimidin-2-amine]",≤ 0.05
15,"CS(=O)(=O)N1CCC(Nc2ncc(C(F)(F)F)c(-c3cn(-c4cccc(-c5cccnc5)c4Cl)cn3)n2)CC1 [Example 97, 4-(1-(2-chloro-3-(Pyridin-3-yl)phenyl)-1H-imidazol-4-yl)-N-(1-(methylsulfonyl)piperidin-4-yl)-5-(trifluoromethyl) pyrimidin-2-amine]",≤ 0.05
16,"Cn1cc(-c2ccc(-n3cnc(-c4nc(NC5CCN(S(C)(=O)=O)CC5)ncc4C(F)(F)F)c3)c(C(F)(F)F)n2)cn1 [Example 98, 4-(1-(6-(1-Methyl-1H-pyrazol-4-yl)-2-(trifluoromethyl)pyridin-3-yl)-1H-imidazol-4-yl)-N-(1-(methylsulfonyl)piperidin-4-yl)-5-(trifluoromethyl) pyrimidin-2-amine]",≤ 0.05
17,"CS(=O)(=O)N1CCC(Nc2ncc(C(F)(F)F)c(-c3cn(-c4ccc(C#N)nc4C(F)(F)F)cn3)n2)CC1 [Example 99, 5-(4-(2-((1-(Methylsulfonyl)piperidin-4-yl)amino)-5-(trifluoromethyl)pyrimidin-4-yl)-1H-imidazol-1-yl)-6-(trifluoromethyl)picolinonitrile]",≤ 0.05
18,"CS(=O)(=O)N1CCC(Nc2ncc(C(F)(F)F)c(-c3cn(-c4ccc(C#N)nc4C(F)F)cn3)n2)CC1 [Example 100, 6-(Difluoromethyl)-5-(4-(2-((1-(methyl-sulfonyl)piperidin-4-yl)amino)-5-(trifluoro-methyl)pyrimidin-4-yl)-1H-imidazol-1-yl)picolinonitrile]",≤ 0.05
19,"Cc1nc(-c2nc(NC3CCN(S(C)(=O)=O)CC3)ncc2C(F)(F)F)cn1-c1ccc(N2CCC(N(C)C)CC2)cc1F [Example 101, 4-(1-(4-(4-(Dimethylamino)piperidin-1-yl)-2-fluorophenyl)-2-methyl-1H-imidazol-4-yl)-N-(1-(methylsulfonyl)piperidin-4-yl)-5-(trifluoromethyl)pyrimidin-2-amine]",≤ 0.05
20,"Cc1nc(-c2nc(NC3CCN(S(C)(=O)=O)CC3)ncc2C(F)(F)F)cn1-c1ccccc1F [Example 102, 4-(1-(2-Fluorophenyl)-2-methyl-1H-imidazol-4-yl)-N-(1-(methylsulfonyl)piperidin-4-yl)-5-(trifluoromethyl)pyrimidin-2-amine]",≤ 0.05
21,"Cc1nc(-c2nc(NC3CCN(S(C)(=O)=O)CC3)ncc2C(F)(F)F)cn1-c1ccc(N2CCN(C)CC2)cc1F [Example 103, 4-(1-(2-Fluoro-4-(4-methylpiperazin-1-yl)phenyl)-2-methyl-1H-imidazol-4-yl)-N-(1-(methylsulfonyl)piperidin-4-yl)-5-(trifluoromethyl)pyrimidin-2-amine]",≤ 0.05
22,"Cc1nc(-c2nc(NC3CCN(S(C)(=O)=O)CC3)ncc2C(F)(F)F)cn1-c1ccc(N2CC3(CCN(C)CC3)C2)cc1F [Example 104, 4-(1-(2-Fluoro-4-(7-methyl-2,7-diazaspiro[3.5]-nonan-2-yl)phenyl)-2-methyl-1H-imidazol-4-yl)-N-(1-(methylsulfonyl)-piperidin-4-yl)-5-(trifluoromethyl)-pyrimidin-2-amine]",≤ 0.05
23,"Cc1nc(-c2nc(NC3CCN(S(C)(=O)=O)CC3)ncc2C(F)(F)F)cn1-c1ccc(N2CCN(C(C)C)CC2)cc1F [Example 105, 4-(1-(2-Fluoro-4-(4-isopropyl-piperazin-1-yl)-phenyl)-2-methyl-1H-imidazol-4-yl)-N-(1-(methyl-sulfonyl)piperidin-4-yl)-5-(trifluoro-methyl)pyrimidin-2-amine]",≤ 0.05
24,"Cc1nc(-c2nc(NC3CCN(S(C)(=O)=O)CC3)ncc2C(F)(F)F)cn1-c1ccc(N2CCC[C@H](N(C)C)C2)cc1F [Example 106, (S)-4-(1-(4-(3-(Dimethylamino)-piperidin-1-yl)-2-fluorophenyl)-2-methyl-1H-imidazol-4-yl)-N-(1-(methyl-sulfonyl)piperidin-4-yl)-5-(trifluoro-methyl)pyrimidin-2-amine]",≤ 0.05
25,"CNC1CCN(c2ccc(-n3cc(-c4nc(NC5CCN(S(C)(=O)=O)CC5)ncc4C(F)(F)F)nc3C)c(F)c2)CC1 [Example 107, 4-(1-(2-Fluoro-4-(4-(methylamino)-piperidin-1-yl)-phenyl)-2-methyl-1H-imidazol-4-yl)-N-(1-(methyl-sulfonyl)piperidin-4-yl)-5-(trifluoro-methyl)pyrimidin-2-amine]",≤ 0.05
26,"Cc1nc(-c2nc(NC3CCN(S(C)(=O)=O)CC3)ncc2C(F)(F)F)cn1-c1ccc(N2CCN(C)C(=O)C2)cc1F [Example 108, 4-(3-Fluoro-4-(2-methyl-4-(2-((1-(methylsulfonyl)-piperidin-4-yl)-amino)-5-(trifluoro-methyl)pyrimidin-4-yl)-1H-imidazol-1-yl)phenyl)-1-methylpiperazin-2-one]",≤ 0.05
27,"Cc1nc(-c2nc(NC3CCN(S(C)(=O)=O)CC3)ncc2C(F)(F)F)cn1-c1ccc(N2CC[C@@H](N(C)C)C2)cc1F [Example 109, (R)-4-(1-(4-(3-(Dimethylamino)-pyrrolidin-1-yl)-2-fluorophenyl)-2-methyl-1H-imidazol-4-yl)-N-(1-(methyl-sulfonyl)piperidin-4-yl)-5-(trifluoro-methyl)pyrimidin-2-amine]",≤ 0.05
